What all share (assay type): in vivo
In data set [1] the test system is Trialeurodes vaporariorum. In words: Trial on poinsettia, spray, against neonicotinoid-resistant greenhouse whiteflies (Netherlands). Particulars: 150 g ai/ha/m CH, SL 100, Imidacloprid SL 200. An excerpt: In Zwaagdiyk (Niederlande) wurden Weihnachtssterne, die stark mit bekanntermaßen Neonikotinoyl-resistenten Gewächshaus-Weißen Fliegen (Trialeurodes vaporariorum) infiziert waren, jeweils zwei Mal im Abstand von 7 Tagen mit der Verbindung 1-5 (SL 100, 150 g ai/ha/m CH (g aktive Substanz/ha/m CH, CH = Laubwand-Höhe) bzw. mit Imidacloprid (SL 200, 150 g ai/ha/m CH) besprüht. Zu verschiedenen Zeitpunkten nach der ersten bzw. zweiten Behandlung (DAA = Tage nach 1. Behandlung, DAB = Tage nach zweiter Behandlung) wurde die Wirksamkeit (in % Abbott: Verhältnis der Anzahl Tiere auf behandelter Pflanze / Fläche zur Anzahl Tiere auf Kontrolle) der beiden Substanzen gegen Trialeurodes vaporariorum bestimmt.

Data set [2] relates to Nilaparvata lugens Bayer S. In words: Spray test on infested rice seedlings (standard screening), susceptible strain Bayer S. The note with it: rice seedlings sprayed, evaluation 7 days after infection. The text has this: Reissetzlinge wurden mit Stämmen von Nilaparvata lugens (Bayer S und Vietnam) infiziert und mit der Verbindung I-5 bzw. mit Imidacloprid besprüht. Die Auswertung erfolgte 7 Tage nach Infektion (Standard-Screening-Verfahren).

Data set [3] deals with Nymphen von Bemisia argentifolii. In words: Field trial on melon plants, spray, against nymphs of neonicotinoid-resistant silverleaf whiteflies (Arizona). The note with it: 150 g ai/ha/m CH, SL 100, Imidacloprid SC 192. An excerpt: In Arizona (USA) wurden Melonenpflanzen, die stark mit Nymphen von bekanntermaßen Neonikotinoyl-resistenten Silberflügeligen Weißen Fliegen (Bemisia argentifolii) infiziert waren, jeweils zwei Mal im Abstand von 15 Tagen mit der Verbindung 1-5 (SL 100, 150 g ai/ha/m CH (g aktive Substanz/ha/m CH, CH = Laubwand-Höhe) bzw. mit Imidacloprid (SC 192, 150 g ai/ha/m CH) besprüht. Zu verschiedenen Zeitpunkten nach der ersten bzw. zweiten Behandlung (DAA = Tage nach 1. Behandlung, DAB = Tage nach zweiter Behandlung) wurde die Wirksamkeit (in % Abbott: Verhältnis der Anzahl Nymphen auf behandelter Pflanze / Fläche zur Anzahl Nymphen auf Kontrolle) der beiden Substanzen gegen Nymphen von Bemisia argentifolii bestimmt.

The test system of data set [4] is Nymphen von Bemisia tabaci. In words: Field trial on cotton plants, spray, against nymphs of neonicotinoid-resistant whiteflies (Brenes). The note with it: sprayed 2x, 150 g ai/ha/m CH, I-5 SL 100, Imidacloprid SL 200. An excerpt:
In Brenes (Spanien) wurden Baumwollpflanzen, die stark mit Nymphen von bekanntermaßen Neonikotinoyl-resistenten Weißen Fliegen (Bemisia tabaci) infiziert waren, jeweils zwei Mal im Abstand von 13 Tagen mit der Verbindung I-5 (SL 100, 150 g ai/ha/m CH (g aktive Substanz/ha/m CH, CH = Laubwand-Höhe) bzw. mit Imidacloprid (SL 200, 150 g ai/ha/m CH) besprüht. Zu verschiedenen Zeitpunkten nach der ersten bzw. zweiten Behandlung (DAA = Tage nach 1. Behandlung, DAB = Tage nach zweiter Behandlung) wurde die Wirksamkeit (in % Abbott: Verhältnis der Anzahl Nymphen auf behandelter Pflanze / Fläche zur Anzahl Nymphen auf Kontrolle) der beiden Substanzen gegen Nymphen von Bemisia tabaci in bestimmt.

As for `O=[N+]([O-])NC1=NCCN1Cc1ccc(Cl)nc1` [Imidacloprid], the Effizienz in data set [1] (7 DAA, sprayed) is 11,4 % Abbott; in data set [1] (7 DAB, sprayed 2x), 9,9 % Abbott; in data set [1] (14 DAB, sprayed 2x) it was 0 % Abbott; in data set [1] (21 DAB, sprayed 2x), 3,7 % Abbott; in data set [1] (29 DAB, sprayed 2x), 18,6 % Abbott; in data set [3] (7 DAB, sprayed 2x) it was 36,1 % Abbott. Moreover, the Effizienz is 53,1 % Abbott in data set [3] (8 DAA, sprayed); 31,9 % Abbott in data set [3] (13 DAB, sprayed 2x); 47,6 % Abbott in data set [3] (14 DAA, sprayed); 60 % Abbott in data set [4] (13 DAB); 56,9 % Abbott in data set [4] (15 DAB); 42,1 % Abbott in data set [4] (25 DAB). For the same molecule, the Effizienz in data set [4] (36 DAB) is reported as 24,3 % Abbott. Further, the “Bayer S (empfindlicher Stamm) LC50” value in data set [2] is listed as 0,0049 g/ha.
In the case of `O=C1C=C(N(Cc2ccc(Cl)nc2)CC(F)F)CO1` [Verbindung I-5, 4-{[(6-Chlorpyrid-3-yl)methyl](2,2-difluorethyl)amino}furan-2(5H)-on], the Effizienz was 23 % Abbott in data set [1] (7 DAA, sprayed); 50,9 % Abbott in data set [1] (7 DAB, sprayed 2x); 39,1 % Abbott in data set [1] (14 DAB, sprayed 2x); 62,2 % Abbott in data set [1] (21 DAB, sprayed 2x); 50,9 % Abbott in data set [1] (29 DAB, sprayed 2x); 55,4 % Abbott in data set [3] (7 DAB, sprayed 2x). The Effizienz in data set [3] (8 DAA, sprayed) was 86,8 % Abbott; in data set [3] (13 DAB, sprayed 2x) it was 80,9 % Abbott; in data set [3] (14 DAA, sprayed), 84,6 % Abbott; in data set [4] (13 DAB) it was 78,9 % Abbott; in data set [4] (15 DAB), 63,5 % Abbott; in data set [4] (25 DAB), 77,8 % Abbott. Also, the Effizienz in data set [4] (36 DAB) was 70,8 % Abbott. Moreover, the “Bayer S (empfindlicher Stamm) LC50” value in data set [2] is on record as 0,36 g/ha.
